Reference: ChEMBL document CHEMBL3217753, “Discovery of selective 2,4-diaminopyrimidine-based photoaffinity probes for glyoxalase I” (Medchemcomm, 2014)
Calls of active or inactive are those of the source. The rule behind the calls is not given here.

Assays:
[1] = molecular target: T1, Lactoylglutathione lyase (Homo sapiens, UniProt Q04760); assay: Inhibition of recombinant GLO-1 (unknown origin) assessed as S-D-lactoylglutathione formation preincubated for 1 hr followed by methylglyoxal and GSH addition measured after 9 mins by spectrophotometric analysis
Target sequence in this assay (Q04760 whole entry): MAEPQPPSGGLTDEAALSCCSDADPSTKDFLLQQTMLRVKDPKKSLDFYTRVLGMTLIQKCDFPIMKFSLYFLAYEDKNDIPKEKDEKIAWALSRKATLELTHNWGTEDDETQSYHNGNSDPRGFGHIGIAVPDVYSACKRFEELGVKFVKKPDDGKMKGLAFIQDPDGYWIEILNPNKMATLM

[2] = system: NCI-H522; assay: Growth inhibition of human NCI-H522 cells after 48 hrs by CellTiter-Glo assay in presence of 5 mM glucose; assay type: functional; details: NCI-H522, 48 h
[3] = system: A549; assay: Growth inhibition of human A549 cells after 48 hrs by CellTiter-Glo assay in presence of 25 mM glucose; assay type: functional; details: A549, 48 h
[4] = system: HeLa; assay: Induction of apoptosis in human HeLa cells under high glucose condition assessed as nuclear fragmentation at 5 uM after 24 hrs by DAPI staining-based fluorescence microscopic analysis; assay type: functional, cell-based
[5] = system: HeLa; assay: Growth inhibition of human HeLa cells after 48 hrs by CellTiter-Glo assay in presence of 5 mM glucose; assay type: functional
[6] = molecular target: T1, Lactoylglutathione lyase; assay: Competitive binding affinity to GLO-1 in human HeLa cells at 100 uM incubated for 6 hrs followed by UV-irradiation for 1 hr by fluorescence microscopic analysis in presence of N-(4-(4-(5-fluoro-4-(2-(methylsulfonamido)phenylamino)pyrimidin-2-ylamino)benzoyl)phenyl)hex-5-ynamide; assay type: cell-based
Target sequence in this assay (Q04760 2-184 limits assumed): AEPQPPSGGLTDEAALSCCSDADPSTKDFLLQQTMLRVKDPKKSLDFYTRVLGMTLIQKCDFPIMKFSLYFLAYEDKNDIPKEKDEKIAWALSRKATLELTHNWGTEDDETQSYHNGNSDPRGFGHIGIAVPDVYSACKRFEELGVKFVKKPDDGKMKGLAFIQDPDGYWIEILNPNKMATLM

[7] = molecular target: T1, Lactoylglutathione lyase; assay: Competitive binding affinity to monomeric form of GLO-1 in HEK293T cell lysate at 20 uM after overnight incubation followed by UV-irradiation for 1 hr by fluorescence assay in presence of N-(4-(4-(5-fluoro-4-(2-(methylsulfonamido)phenylamino)pyrimidin-2-ylamino)benzoyl)phenyl)hex-5-ynamide; assay type: cell-based; details: HEK-293T
Target sequence in this assay (Q04760 2-184 limits assumed): as above

[8] = molecular target: T1, Lactoylglutathione lyase; assay: Inhibition of GLO-1 in human HeLa cells under high glucose condition assessed as increase in methylglyoxal level at 5 uM after 24 hrs by spectrophotometric analysis; assay type: cell-based
Target sequence in this assay (Q04760 2-184 limits assumed): as above

[9] = molecular target: T1, Lactoylglutathione lyase; assay: Competitive binding affinity to dimeric form of GLO-1 in HEK293T cells at 20 uM incubated for 6 hrs followed by UV-irradiation for 1 hr by fluorescence assay in presence of N-(4-(4-(5-fluoro-4-(2-(methylsulfonamido)phenylamino)pyrimidin-2-ylamino)benzoyl)phenyl)hex-5-ynamide; assay type: cell-based; details: HEK-293T
Target sequence in this assay (Q04760 2-184 limits assumed): as above

[10] = molecular target: T1, Lactoylglutathione lyase; assay: Competitive binding affinity to dimeric form of GLO-1 in HEK293T cell lysate at 20 uM after overnight incubation followed by UV-irradiation for 1 hr by fluorescence assay in presence of N-(4-(4-(5-fluoro-4-(2-(methylsulfonamido)phenylamino)pyrimidin-2-ylamino)benzoyl)phenyl)hex-5-ynamide; assay type: cell-based; details: HEK-293T
Target sequence in this assay (Q04760 2-184 limits assumed): as above

[11] = molecular target: T1, Lactoylglutathione lyase; assay: Competitive binding affinity to monomeric form of GLO-1 in HEK293T cells at 20 uM incubated for 6 hrs followed by UV-irradiation for 1 hr by fluorescence assay in presence of N-(4-(4-(5-fluoro-4-(2-(methylsulfonamido)phenylamino)pyrimidin-2-ylamino)benzoyl)phenyl)hex-5-ynamide; assay type: cell-based; details: HEK-293T
Target sequence in this assay (Q04760 2-184 limits assumed): as above

[12] = system: HeLa; assay: Induction of apoptosis in human HeLa cells under high glucose condition assessed as caspase-3 degradation at 1 to 50 uM after 24 hrs by Western blotting analysis; assay type: functional, cell-based
[13] = system: A549; assay: Growth inhibition of human A549 cells after 48 hrs by CellTiter-Glo assay in presence of 5 mM glucose; assay type: functional; details: A549, 48 h
[14] = system: HeLa; assay: Growth inhibition of human HeLa cells after 48 hrs by CellTiter-Glo assay in presence of 25 mM glucose; assay type: functional
[15] = system: NCI-H522; assay: Growth inhibition of human NCI-H522 cells after 48 hrs by CellTiter-Glo assay in presence of 25 mM glucose; assay type: functional; details: NCI-H522, 48 h
[16] = molecular target: T1, Lactoylglutathione lyase; assay: (§1) Competitive binding affinity to GLO-1 in HEK293T cell lysate at 50 uM after overnight incubation followed by UV-irradiation for 1 hr by pull-down assay in presence of N-(4-(4-(5-fluoro-4-(2-(methylsulfonamido)phenylamino)pyrimidin-2-ylamino)benzoyl)phenyl)-5-((3aS,4S,6aR)-2-oxohexahydro-1H-thieno[3,4-d]imidazol-4-yl)pentanamide; assay type: cell-based; details: HEK-293T
[17] = molecular target: T1, Lactoylglutathione lyase; assay: Binding affinity to GLO-1 in live HEK293T cells by pull-down assay; assay type: cell-based; details: HEK-293T
[18] = molecular target: T1, Lactoylglutathione lyase; assay: as §1, with “Western blotting analysis” for “pull-down assay”; assay type: cell-based; details: HEK-293T
[19] = molecular target: T1, Lactoylglutathione lyase; assay: Competitive binding affinity to human recombinant GLO-1 at 50 uM in presence of N-(4-(4-(5-fluoro-4-(2-(methylsulfonamido)phenylamino)pyrimidin-2-ylamino)benzoyl)phenyl)-5-((3aS,4S,6aR)-2-oxohexahydro-1H-thieno[3,4-d]imidazol-4-yl)pentanamide
[20] = system: HeLa; assay: Ratio of GI50 for human HeLa cells in presence of 5 mM glucose to GI50 for human HeLa cells in presence of 25 mM glucose; assay type: functional

IC50 [1] [nM] | GI50 [2] [µM] | GI50 [3] [µM] | GI50 [5] [µM] | Activity [6] | Activity [7] | inhibition [8] | Activity [9] | Activity [10] | Activity [11] | GI50 [13] [µM] | GI50 [14] [µM] | GI50 [15] [µM] | Activity [16] | Activity [17] | Activity [18] | Activity [19] | SMILES | Activity [4] | Activity [12] | Ratio IC50 [20]
53.9 | 25 | > 50 | 61 | – | – | – | – | – | – | > 50 | 23.2 | 12.2 | – | – | – | – | CS(=O)(=O)Nc1ccccc1Nc1nc(Nc2ccc(Cl)cc2)ncc1F | – | – | 2.6
45.8 | 8.3 | 26.9 | 14 | – | – | – | – | – | – | 37.4 | 7.3 | 7.3 | – | – | – | – | CS(=O)(=O)Nc1ccccc1Nc1nc(Nc2ccc(Oc3ccccc3)cc2)ncc1F | – | – | 2.6

Continued, compound first:

SMILES | IC50 [1] [nM] | GI50 [2] [µM] | GI50 [3] [µM] | GI50 [5] [µM] | Activity [6] | Activity [7] | inhibition [8] | Activity [9] | Activity [10] | Activity [11] | GI50 [13] [µM] | GI50 [14] [µM] | GI50 [15] [µM] | Activity [16] | Activity [17] | Activity [18] | Activity [19] | Activity [4] | Activity [12] | Ratio IC50 [20]
C#CCCCC(=O)Nc1ccc(C(=O)c2ccc(Nc3ncc(F)c(Nc4ccccc4NS(C)(=O)=O)n3)cc2)cc1 | 26.4 | 2.7 | 13.3 | 5.7 | Active | Active | Active | Active | Active | Active | 15.5 | 4.6 | 2.9 | – | – | – | – | Active | Active | –
CS(=O)(=O)Nc1ccccc1Nc1nc(Nc2ccc(C(=O)c3ccc(NC(=O)CCCC[C@@H]4SC[C@@H]5NC(=O)N[C@@H]54)cc3)cc2)ncc1F | – | – | – | – | – | – | – | – | – | – | – | – | – | Active | inactive | Active | Active | – | – | –
CS(=O)(=O)Nc1ccccc1Nc1nc(Nc2ccc(C(=O)OCc3ccccc3)cc2)ncc1F | 51.3 | 40.2 | > 50 | 61.9 | – | – | – | – | – | – | > 50 | 37 | 16.5 | – | – | – | – | – | – | 2.6
